Assay results: US6358885B1, “Substituted phenylheterocyclic herbicides” (Mississippi State University, priority 1992, dated 2002)

Experiments:
barley = assay: Test B preemergence/postemergence greenhouse plant response rating 0 to 10; format: in vivo, Hordeum vulgare; details: for Plant response rating, Barley: 0 to 10 scale
Procedure, shortened: (§1)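 Both application timings were run together: seeds got compound preemergence, and established seedlings (two to eighteen cm) got it postemergence. Non-phytotoxic solvent carried the chemical. Ratings are visual, versus controls, at twelve to sixteen days.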

bedstraw = assay: as above; format: in vivo, Galium aparine; details: for Plant response rating, Bedstraw: 0 to 10 scale
Procedure, shortened: as §1

blackgrass = assay: as above; format: in vivo, Alopecurus myosuroides; details: for Plant response rating, Blackgrass: 0 to 10 scale
Procedure, shortened: as §1

cocklebur = assay: as above; format: in vivo, Xanthium pensylvanicum; details: for Plant response rating, Cocklebur: 0 to 10 scale
Procedure, shortened: as §1

crabgrass = assay: as above; format: in vivo, Digitaria spp.; details: for Plant response rating, Crabgrass: 0 to 10 scale
Procedure, shortened: as §1

lambsquarters = assay: as above; format: in vivo, Chenopodium album; details: 0 to 10 scale
Procedure, shortened: as §1

rape = assay: as above; format: in vivo, Brassica napus; details: 0 to 10 scale
Procedure, shortened: as §1

rice [1] = assay: as above; format: in vivo, Oryza sativa; details: 0 to 10 scale
Procedure, shortened: as §1

soybean = assay: as above; format: in vivo, Glycine max; details: 0 to 10 scale
Procedure, shortened: as §1

sugar beet = assay: as above; format: in vivo, Beta vulgaris; details: 0 to 10 scale
Procedure, shortened: as §1

purple nutsedge = assay: as above; format: in vivo, Cyperus rotundus; details: 0 to 10 scale
Procedure, shortened: as §1

corn = assay: Test C preemergence/postemergence greenhouse plant response rating 0 to 100; format: in vivo, Zea mays; details: for Plant response rating, Corn: 0 to 100 scale
Excerpt: (§2) The compounds evaluated in this test were formulated in a non-phytoxic solvent and applied to the soil surface before plant seedlings emerged (preemergence application), to water that covered the soil surface (flood application), and to plants that were in the one-to-four leaf stage (postemergence application). A sandy loam soil was used for the preemergence and postemergence tests, while a silt loam soil was used in the flood test. Water depth was approximately 2.5 cm for the flood test and was maintained at this level for the duration of the test. Plant species in the preemergence and postemergence tests consisted of barley (Hordeum vulgare), bedstraw (Galium aparine), blackgrass (Alopecurus myosuroides), chickweed (Stellaria media), corn (Zea mays), cotton (Gossypium hirsutum), crabgrass (Digitaria sanguinalis), downy brome (Bromus tectorum), giant foxtail (Setaria faberii), lambsquarters (Chenopodium album), morningglory (Ipomoea hederacea), pigweed ([…]), rape (Brassica napus), ryegrass (Lolium multiflorum), sorghum (Sorghum bicolor), soybean (Glycine max), speedwell (Veronica persica), sugar beet (Beta vulgaris), velvetleaf (Abutilon theophrasti), wheat (Triticum aestivum), wild buckwheat (Polygonum convolvulus), and wild oat (Avena fatua). All plant species were planted one day before application of the compound for the preemergence portion-of this test. Plantings of these species were adjusted to produce plants of appropriate size for the post-emergence portion of the test. […] All plant species were grown using normal greenhouse practices. Visual evaluations of injury expressed on treated plants, when compared to untreated controls, were recorded approximately fourteen to twenty one days after application of the test compound. […] A dash (-) response means no test result.

morningglory = assay: as above; format: in vivo, Ipomoea hederacea; details: for Plant response rating, Morningglory: 0 to 100 scale
Excerpt: as §2

pigweed = assay: as above; format: in vivo, Amaranthusretroflexus; details: for Plant response rating Pigweed: 0 to 100 scale
Excerpt: as §2

sorghum = assay: as above; format: in vivo, Sorghum bicolor; details: for Plant response rating, Sorghum: 0 to 100 scale
Excerpt: as §2

rice [2] = assay: Test C flood test plant response rating 0 to 100; format: in vivo, Oryza sativa; details: for Plant response rating Rice Japonica: flood test species listed under POSTEMERGENCE, 0 to 100 scale
Excerpt: as §2

umbrella sedge = assay: Test C flood test plant response rating 0 to 100; format: in vivo, Cyperus difformis; details: for Plant response rating Umbrella sedge: flood test species listed under POSTEMERGENCE, 0 to 100 scale
Excerpt: as §2

barnyardgrass = assay: Test C flood test plant response rating 0 to 100; format: in vivo, Echinochloa crus-galli; details: for Plant response rating (0 to 100), Barnyardgrass: under POSTEMERGENCE head (flood test species); for Plant response rating, Barnyardgrass: flood test species listed under POSTEMERGENCE, 0 to 100 scale
Excerpt: as §2

[3] = POSTEMERGENCE section, flood test, Rate 4 g/ha
[4] = Rate 16 g/ha, under POSTEMERGENCE head (flood test species)

SMILES: C#CCOc1cc(-c2nn3c(c2Br)CCCC3)c(F)cc1Cl [Compound 26]
- Plant response rating (0 to 10 scale), Barley (barley; POSTEMERGENCE, Rate 50 g/ha): 4
- Plant response rating, Barley (barley; POSTEMERGENCE, Rate 200 g/ha): 6
- Plant response rating, Barley (barley; PREEMERGENCE, Rate 50 g/ha): 0
- Plant response rating, Barley (barley; Rate 200 g/ha, PREEMERGENCE): 1
- Plant response rating (0 to 10 scale), Bedstraw (bedstraw; POSTEMERGENCE, Rate 50 g/ha): 9
- Plant response rating, Bedstraw (bedstraw; POSTEMERGENCE, Rate 200 g/ha): 9
- Plant response rating, Bedstraw (bedstraw; PREEMERGENCE, Rate 50 g/ha): 10
- Plant response rating, Bedstraw (bedstraw; Rate 200 g/ha, PREEMERGENCE): 10
- Plant response rating (0 to 10 scale), Blackgrass (blackgrass; POSTEMERGENCE, Rate 50 g/ha): 4
- Plant response rating, Blackgrass (blackgrass; POSTEMERGENCE, Rate 200 g/ha): 5
- Plant response rating, Blackgrass (blackgrass; PREEMERGENCE, Rate 50 g/ha): 4
- Plant response rating, Blackgrass (blackgrass; Rate 200 g/ha, PREEMERGENCE): 6
- Plant response rating (0 to 10 scale), Cocklebur (cocklebur; POSTEMERGENCE, Rate 50 g/ha): 10
- Plant response rating, Cocklebur (cocklebur; POSTEMERGENCE, Rate 200 g/ha): 10
- Plant response rating, Cocklebur (cocklebur; PREEMERGENCE, Rate 50 g/ha): 1
- Plant response rating, Cocklebur (cocklebur; Rate 200 g/ha, PREEMERGENCE): 9
- Plant response rating (0 to 10 scale), Crabgrass (crabgrass; POSTEMERGENCE, Rate 50 g/ha): 2
- Plant response rating, Crabgrass (crabgrass; POSTEMERGENCE, Rate 200 g/ha): 6
- Plant response rating, Crabgrass (crabgrass; PREEMERGENCE, Rate 50 g/ha): 5
- Plant response rating, Crabgrass (crabgrass; Rate 200 g/ha, PREEMERGENCE): 9
- Plant response rating, Lambsquarter (lambsquarters; POSTEMERGENCE, Rate 50 g/ha): 10
- Plant response rating, Lambsquarter (lambsquarters; POSTEMERGENCE, Rate 200 g/ha): 10
- Plant response rating, Lambsquarter (lambsquarters; PREEMERGENCE, Rate 50 g/ha): 10
- Plant response rating, Lambsquarter (lambsquarters; Rate 200 g/ha, PREEMERGENCE): 10
- Plant response rating, Rape (rape; POSTEMERGENCE, Rate 50 g/ha): 9
- Plant response rating, Rape (rape; POSTEMERGENCE, Rate 200 g/ha): 10
- Plant response rating, Rape (rape; PREEMERGENCE, Rate 50 g/ha): 3
- Plant response rating, Rape (rape; Rate 200 g/ha, PREEMERGENCE): 10
- Plant response rating, Rice (rice [1]; POSTEMERGENCE, Rate 50 g/ha): 5
- Plant response rating, Rice (rice [1]; POSTEMERGENCE, Rate 200 g/ha): 6
- Plant response rating, Rice (rice [1]; PREEMERGENCE, Rate 50 g/ha): 0
- Plant response rating, Rice (rice [1]; Rate 200 g/ha, PREEMERGENCE): 3
- Plant response rating, Soybean (soybean; POSTEMERGENCE, Rate 50 g/ha): 8
- Plant response rating, Soybean (soybean; POSTEMERGENCE, Rate 200 g/ha): 9
- Plant response rating, Soybean (soybean; PREEMERGENCE, Rate 50 g/ha): 1
- Plant response rating, Soybean (soybean; Rate 200 g/ha, PREEMERGENCE): 3
- Plant response rating, Sugar beet (sugar beet; POSTEMERGENCE, Rate 50 g/ha): 10
- Plant response rating, Sugar beet (sugar beet; POSTEMERGENCE, Rate 200 g/ha): 10
- Plant response rating, Sugar beet (sugar beet; PREEMERGENCE, Rate 50 g/ha): 9
- Plant response rating, Sugar beet (sugar beet; Rate 200 g/ha, PREEMERGENCE): 10
- Plant response rating, Nutsedge (purple nutsedge; POSTEMERGENCE, Rate 200 g/ha): 4
- Plant response rating, Nutsedge (purple nutsedge; PREEMERGENCE, Rate 50 g/ha): 0
- Plant response rating, Nutsedge (purple nutsedge; Rate 200 g/ha, PREEMERGENCE): 0
- Plant response rating, Corn (corn; POSTEMERGENCE, 62 g/ha): 50
- Plant response rating, Corn (corn; POSTEMERGENCE, 250 g/ha): 50
- Plant response rating, Corn (corn; PREEMERGENCE, 62 g/ha): 0
- Plant response rating, Corn (corn; PREEMERGENCE, 250 g/ha): 30
- Plant response rating (0 to 100), Corn (corn; PREEMERGENCE, Rate 4 g/ha): 0
- Plant response rating (0 to 100), Corn (corn; Rate 4 g/ha, POSTEMERGENCE): 30
- Plant response rating (0 to 100), Corn (corn; Rate 16 g/ha, POSTEMERGENCE): 40
- Plant response rating (0 to 100), Corn (corn; Rate 16 g/ha, PREEMERGENCE): 0
- Plant response rating, Morningglory (morningglory; POSTEMERGENCE, 62 g/ha): 70
- Plant response rating, Morningglory (morningglory; POSTEMERGENCE, 250 g/ha): 100
- Plant response rating (0 to 100), Morningglory (morningglory; POSTEMERGENCE, Rate 4 g/ha): 50
- Plant response rating, Morningglory (morningglory; PREEMERGENCE, 62 g/ha): 20
- Plant response rating, Morningglory (morningglory; PREEMERGENCE, 250 g/ha): 100
- Plant response rating (0 to 100), Morningglory (morningglory; PREEMERGENCE, Rate 4 g/ha): 0
- Plant response rating (0 to 100), Morningglory (morningglory; Rate 16 g/ha, POSTEMERGENCE): 70
- Plant response rating (0 to 100), Morningglory (morningglory; Rate 16 g/ha, PREEMERGENCE): 0
- Plant response rating Pigweed (pigweed; POSTEMERGENCE, 62 g/ha): 100
- Plant response rating Pigweed (pigweed; POSTEMERGENCE, 250 g/ha): 100
- Plant response rating (0 to 100), Pigweed (pigweed; POSTEMERGENCE, Rate 4 g/ha): 100
- Plant response rating Pigweed (pigweed; PREEMERGENCE, 62 g/ha): 100
- Plant response rating Pigweed (pigweed; PREEMERGENCE, 250 g/ha): 100
- Plant response rating (0 to 100), Pigweed (pigweed; PREEMERGENCE, Rate 4 g/ha): 30
- Plant response rating (0 to 100), Pigweed (pigweed; Rate 16 g/ha, POSTEMERGENCE): 100
- Plant response rating (0 to 100), Pigweed (pigweed; Rate 16 g/ha, PREEMERGENCE): 100
- Plant response rating, Sorghum (sorghum; POSTEMERGENCE, 62 g/ha): 50
- Plant response rating, Sorghum (sorghum; POSTEMERGENCE, 250 g/ha): 50
- Plant response rating (0 to 100), Sorghum (sorghum; POSTEMERGENCE, Rate 4 g/ha): 20
- Plant response rating, Sorghum (sorghum; PREEMERGENCE, 250 g/ha): 50
- Plant response rating (0 to 100), Sorghum (sorghum; PREEMERGENCE, Rate 4 g/ha): 0
- Plant response rating (0 to 100), Sorghum (sorghum; Rate 16 g/ha, POSTEMERGENCE): 30
- Plant response rating (0 to 100), Sorghum (sorghum; Rate 16 g/ha, PREEMERGENCE): 20
- Plant response rating (0 to 100), Rice Japonica (rice [2]; [3]): 40
- Plant response rating (0 to 100), Rice Japonica (rice [2]; [4]): 65
- Plant response rating Rice Japonica (rice [2]; 62 g/ha): 80
- Plant response rating Rice Japonica (rice [2]; 250 g/ha): 85
- Plant response rating (0 to 100), Umbrella sedge (umbrella sedge; [3]): 0
- Plant response rating (0 to 100), Umbrella sedge (umbrella sedge; [4]): 70
- Plant response rating Umbrella sedge (umbrella sedge; 62 g/ha): 95
- Plant response rating Umbrella sedge (umbrella sedge; 250 g/ha): 100
- Plant response rating (0 to 100), Barnyardgrass (barnyardgrass; Rate 4 g/ha): 100
- Plant response rating (0 to 100), Barnyardgrass (barnyardgrass; Rate 16 g/ha): 100
- Plant response rating, Barnyardgrass (barnyardgrass; 62 g/ha): 100
- Plant response rating, Barnyardgrass (barnyardgrass; 250 g/ha): 100
